According to patent publication US8361998B2, “Compounds and their use as IKACh blockers” (AstraZeneca AB, priority 2010, dated 2013):

Biological target: T1, human cardiac ion channel proteins hKir3.1/Kir3.4 (Homo sapiens, UniProt P48544+P48549)
T1 construct: expressed in transfected cells
T1 sequence (P48549 1-501): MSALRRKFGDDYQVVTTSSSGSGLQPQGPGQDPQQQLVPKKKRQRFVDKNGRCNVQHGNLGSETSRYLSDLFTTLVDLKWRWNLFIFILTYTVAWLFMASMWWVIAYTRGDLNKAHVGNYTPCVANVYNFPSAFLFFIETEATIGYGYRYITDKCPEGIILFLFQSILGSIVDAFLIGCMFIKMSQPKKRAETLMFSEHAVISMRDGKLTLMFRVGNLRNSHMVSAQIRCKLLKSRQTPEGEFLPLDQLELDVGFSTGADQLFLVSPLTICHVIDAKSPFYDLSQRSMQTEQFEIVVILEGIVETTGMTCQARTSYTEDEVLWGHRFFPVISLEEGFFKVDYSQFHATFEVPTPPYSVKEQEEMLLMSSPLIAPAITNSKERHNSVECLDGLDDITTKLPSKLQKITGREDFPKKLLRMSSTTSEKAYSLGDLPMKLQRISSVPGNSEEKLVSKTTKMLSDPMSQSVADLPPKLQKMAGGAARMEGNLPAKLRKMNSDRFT
T1 sequence (P48544 1-419): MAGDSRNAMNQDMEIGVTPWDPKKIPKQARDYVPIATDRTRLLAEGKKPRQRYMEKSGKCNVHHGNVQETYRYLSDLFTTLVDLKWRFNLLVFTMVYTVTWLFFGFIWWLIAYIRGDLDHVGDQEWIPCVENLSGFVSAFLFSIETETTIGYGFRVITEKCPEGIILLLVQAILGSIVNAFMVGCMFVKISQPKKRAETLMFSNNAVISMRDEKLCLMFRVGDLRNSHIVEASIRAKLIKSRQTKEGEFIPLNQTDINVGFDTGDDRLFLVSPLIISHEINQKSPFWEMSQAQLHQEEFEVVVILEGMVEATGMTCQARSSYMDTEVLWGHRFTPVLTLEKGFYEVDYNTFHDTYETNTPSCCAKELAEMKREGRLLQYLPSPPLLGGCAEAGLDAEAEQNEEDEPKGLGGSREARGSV
Test: Atomic Absorption Screening (AAS) Rb efflux assay of hKir3.1/Kir3.4 block, carbachol/high K+ stimulated, 10-pt or 7-pt CR
Format: cell-based
Conditions: 7-pt CR (0.037 to 27 μmol/L), AAS Rb efflux, CHO-K1 cells expressing hKir3.1/Kir3.4; mean of >3 replicates; read-out: IKACh IC50 7-pt CR, AAS
Method in brief: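 CHO-K1 cells stably co-expressing human Kir3.1/Kir3.4 were Rb-loaded for 3 h at 37° C, preincubated with compound 5 min at RT, then stimulated 10 min with 10 μM carbachol plus 20 mM KCl (final). Supernatant Rb was measured by atomic absorption. Compounds ran at 0.003–67 μmol/L (10-pt) or 0.037–27 μmol/L (7-pt), threefold dilutions; IC50s are means of >4 or >3 replicates respectively.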

Compound | IC50 [µM]
CC(C)[C@@H](CN1CCCC1)N(C)C(=O)c1cc(F)cc(F)c1F [Example 16.9, (S)-2,3,5-Trifluoro-N-methyl-N-(3-methyl-1-(pyrrolidin-1-yl)butan-2-yl)benzamide] | 3.9
CC(C)[C@@H](CN1CCCCC1)N(C)C(=O)c1ccc(Br)c(F)c1 [Example 16.36, (S)-4-Bromo-3-fluoro-N-methyl-N-(3-methyl-1-(piperidin-1-yl)butan-2-yl)benzamide] | 11
Cc1ccc(C(=O)N(C)[C@H](CN2CCCC2)C(C)C)cc1 [Example 16.14, (S)—N,4-Dimethyl-N-(3-methyl-1-(pyrrolidin-1-yl)butan-2-yl)benzamide] | 6.7
CC(C)[C@@H](CN1CCCCC1)N(C)C(=O)c1ccc(Cl)cc1 [Example 16.34, 4-Chloro-N-methyl-N-[(1S)-2-methyl-1-(piperidin-1-ylmethyl)propyl]benzamide] | 4.3
CC(C)[C@@H](CN1CCCC1)N(C)C(=O)c1ccc(OC(F)(F)F)cc1 [Example 16.15, (S)—N-Methyl-N-(3-methyl-1-(pyrrolidin-1-yl)butan-2-yl)-4-(tri-fluoromethoxy)benzamide] | 2.5
CC(C)[C@@H](CN1CCCC1)N(C)C(=O)c1cccc(C(F)(F)F)c1 [Example 16.10, (S)—N-Methyl-N-(3-methyl-1-(pyrrolidin-1-yl)butan-2-yl)-3-(trifluoromethyl)benzamide] | 2.6
CC(C)[C@@H](CN1CC[C@H](O)C1)N(C)C(=O)c1ccc(OC(F)(F)F)cc1 [Example 16.41, N-[(1S)-1-{[(3S)-3-Hydroxypyrrolidin-1-yl]methyl}-2-methylpropyl]-N-methyl-4-(trifluoromethoxy)benzamide] | 6.8
CC(C)[C@@H](CN1CCCC1)N(C)C(=O)c1cc(F)ccc1F [Example 16.22, (S)-2,5-Difluoro-N-methyl-N-(3-methyl-1-(pyrrolidin-1-yl)butan-2-yl)benzamide] | 18

Same assay, conditions: 10-pt CR (0.003 to 67 μmol/L), AAS Rb efflux, CHO-K1 cells expressing hKir3.1/Kir3.4; mean of >4 replicates; read-out: IKACh IC50 10-pt CR, AAS

IC50 [µM] | Compound
7.5 | CN(C(=O)c1ccc(C#N)cc1)C(CN1CC(O)C1)C1CCCC1 (single isomer, unassigned) [32.5, isomer 2]
14 | CC(C)[C@@H](CN1CCCC1)N(C)C(=O)c1cc(F)cc(F)c1F [Example 16.9, (S)-2,3,5-Trifluoro-N-methyl-N-(3-methyl-1-(pyrrolidin-1-yl)butan-2-yl)benzamide]
19 | Cc1cc(C(=O)N(C)[C@H](CCN2CCCC2)C(C)C)ccc1F [Example 13.4, (R)-4-Fluoro-N,3-dimethyl-N-(4-methyl-1-(pyrrolidin-1-yl)pentan-3-yl)benzamide]
2.3 | COCCN(C(=O)c1ccc(Br)cc1)[C@H](CN1CCCC1)C(C)C [Example 15.5, (S)-4-Bromo-N-(2-methoxyethyl)-N-(3-methyl-1-(pyrrolidin-1-yl)butan-2-yl)benzamide]
19 | Cc1ccc(C(=O)N(C)[C@H](CN2CCC(F)(F)C2)C(C)C)cc1C [Example 21, (S)—N-(1-(3,3-Difluoropyrrolidin-1-yl)-3-methylbutan-2-yl)-N,3,4-trimethylbenzamide]
6 | COC[C@@H]1CCCN1C[C@H](C(C)C)N(C)C(=O)c1ccc(Cl)cc1 [Example 3.19, 4-Chloro-N-((S)-1-((S)-2-(methoxymethyl)pyrrolidin-1-yl)-3-methylbutan-2-yl)-N-methylbenzamide]
0.32 | CCCC[C@@H](CN1CC(O)C1)N(C)C(=O)c1ccc(F)c(F)c1 [Example 33.2, 3,4-Difluoro-N-[(2S)-1-(3-hydroxyazetidin-1-yl)hexan-2-yl]-N-methylbenzamide]
2.7 | CC(C)[C@@H](CN1CC[C@@H](O)C1)N(C)C(=O)c1ccc(Br)cc1 [Example 17.5, 4-Bromo-N—((S)-1-((R)-3-hydroxypyrrolidin-1-yl)-3-methylbutan-2-yl)-N-methylbenzamide]
4.8 | COC1CCN(C[C@H](C(C)C)N(C)C(=O)c2ccc(F)c(C)c2)CC1 [Example 3.8, (S)-4-Fluoro-N-(1-(4-methoxypiperidin-1-yl)-3-methylbutan-2-yl)-N,3-dimethylbenzamide]
0.2 | CCC[C@@H](CN1CC(O)C1)N(C)C(=O)c1ccc(Cl)c(C)c1 [Example 8.4, (S)-4-Chloro-N-(1-(3-hydroxyazetidin-1-yl)pentan-2-yl)-N,3-di-methylbenzamide]
17 | CC(C)[C@@H](CN1CCCC(F)(F)C1)N(C)C(=O)c1ccc(F)c(Cl)c1 [Example 16.1, (S)-3-Chloro-N-(1-(3,3-difluoropiperidin-1-yl)-3-methylbutan-2-yl)-4-fluoro-N-methylbenzamide]
19 | Cc1cc(C(=O)N(C)[C@](C)(CN2CC(O)C2)C(C)C)ccc1F [Example 22, (S)-4-Fluoro-N-(1-(3-hydroxyazetidin-1-yl)-2,3-dimethylbutan-2-yl)-N,3-dimethylbenzamide]
2 | CC[C@@H](CN1CC(O)C1)N(C)C(=O)c1ccc(F)c(C)c1 [Example 8.17, (S)-4-Fluoro-N-(1-(3-hydroxyazetidin-1-yl)butan-2-yl)-N,3-dimethylbenzamide]
12 | CC(C)[C@@H](CN1CCC1)N(C)C(=O)c1cccc(Cl)c1 [Example 1.13, (S)-N-(1-(Azetidin-1-yl)-3-methylbutan-2-yl)-3-chloro-N-methylbenzamide]
3.2 | COC1CCN(C[C@H](C(C)C)N(C)C(=O)c2ccc(Br)cc2)CC1 [Example 3.6, (S)-4-Bromo-N-(1-(4-methoxypiperidin-1-yl)-3-methylbutan-2-yl)-N-methylbenzamide]
0.034 | Cc1cc(C(=O)N(C)C(CN2CC(O)C2)C2CCCC2)ccc1F (single isomer, unassigned) [32.4, isomer 1]
6.8 | CN(C(=O)c1ccc(Br)cc1)[C@H](CN1CCC1)C1CC1 [Example 4.3, (S)-N-(2-(Azetidin-1-yl)-1-cyclopropylethyl)-4-bromo-N-methylbenzamide]
1 | CCCC[C@@H](CN1CC(O)C1)N(C)C(=O)c1ccccc1 [Example 33.5, N-[(2S)-1-(3-Hydroxyazetidin-1-yl)hexan-2-yl]-N-methylbenzamide]
0.075 | CN(C(=O)c1ccc(F)c(Cl)c1)C(CN1CC(O)C1)C1CCCC1 (single isomer, unassigned) [32.7, isomer 1]
9.8 | CN(C(=O)c1ccc(F)cc1)[C@H](CN1CC(O)C1)C1CC1 [Example 7.4, (S)-N-(1-Cyclopropyl-2-(3-hydroxyazetidin-1-yl)ethyl)-4-fluoro-N-methylbenzamide]

Compound | IC50 [µM]
CN(C(=O)c1ccc(Cl)cc1)[C@H](CN1CCC1)C1CC1 [Example 4.2, (S)-N-(2-(Azetidin-1-yl)-1-cyclopropylethyl)-4-chloro-N-methylbenzamide] | 2.8
CCN(C(=O)c1ccc(Br)cc1)[C@H](CN1CCCC1)C(C)C [Example 15.1, (S)-4-Bromo-N-ethyl-N-(3-methyl-1-(pyrrolidin-1-yl)butan-2-yl)benzamide] | 11
CN(C(=O)c1ccccc1)[C@H](CN1CC(O)C1)C1CCCCC1 [Example 36.8, N-[(1S)-1-Cyclohexyl-2-(3-hydroxyazetidin-1-yl)ethyl]-N-methylbenzamide] | 1.1

Same assay, conditions: printed as IC50 >67 μM in the 10-pt CR assay or IC50 >27 μM in the 7-pt CR assay; assay format per compound not stated; read-out: IC50

IC50 [µM] | Compound
> 27 | CC(C)[C@@H](CN1CC[C@H](O)C1)N(C)C(=O)c1cc(C(F)(F)F)ccc1F [2-Fluoro-N-[(1S)-1-{[(3S)-3-hydroxypyrrolidin-1-yl]methyl}-2-methylpropyl]-N-methyl-5-(trifluoromethyl)benzamide]
> 27 | CC(C)[C@@H](CN1C[C@@H](O)[C@H](O)C1)N(C)C(=O)c1ccc(Cl)cc1 [4-Chloro-N-((S)-1-((3R,4R)-3,4-dihydroxypyrrolidin-1-yl)-3-methylbutan-2-yl)-N-methylbenzamide]
> 27 | CC(C)[C@@H](CN1CC(C)(O)C1)N(C)C(=O)c1ccc(F)c(F)c1 [(S)-3,4-Difluoro-N-(1-(3-hydroxy-3-methylazetidin-1-yl)-3-methylbutan-2-yl)-N-methylbenzamide]
> 27 | CC(C)[C@@H](CN1CCC1)N(C)C(=O)c1ccc(C#N)cc1 [(S)-N-(1-(Azetidin-1-yl)-3-methylbutan-2-yl)-4-cyano-N-methylbenzamide]

Compound | IC50 [µM]
CC(C)[C@H](CN1CCCC1)N(C)C(=O)c1ccc(F)c(Cl)c1 [3-Chloro-4-fluoro-N-methyl-N-[(1R)-2-methyl-1-(pyrrolidin-1-ylmethyl)propyl]benzamide] | > 27
